Data: ChEMBL document CHEMBL4354872, “Use of Non-Natural Amino Acids for the Design and Synthesis of a Selective, Cell-Permeable MALT1 Activity-Based Probe” (J Med Chem, 2020)
Active and inactive are the calls of the source. The calls are words filed in the database; no cut-off is given here.

Assays:
[1] = biological target: T1, Mucosa-associated lymphoid tissue lymphoma translocation protein 1 (Homo sapiens) (UniProt Q9UDY8); assay: Inhibition of full length wild type human N-terminal GST-tagged MALT1 catalytic domain (325 to 760 residues) expressed in Escherichia coli BL21 (DE3) assessed as increase in fluorescence at 0.5 uL using Ac-LRSR-AMC as substrate preincubated for 20 mins followed by substrate addition measured after 60 to 120 mins by fluorescence plate reader assay
T1 sequence (whole entry): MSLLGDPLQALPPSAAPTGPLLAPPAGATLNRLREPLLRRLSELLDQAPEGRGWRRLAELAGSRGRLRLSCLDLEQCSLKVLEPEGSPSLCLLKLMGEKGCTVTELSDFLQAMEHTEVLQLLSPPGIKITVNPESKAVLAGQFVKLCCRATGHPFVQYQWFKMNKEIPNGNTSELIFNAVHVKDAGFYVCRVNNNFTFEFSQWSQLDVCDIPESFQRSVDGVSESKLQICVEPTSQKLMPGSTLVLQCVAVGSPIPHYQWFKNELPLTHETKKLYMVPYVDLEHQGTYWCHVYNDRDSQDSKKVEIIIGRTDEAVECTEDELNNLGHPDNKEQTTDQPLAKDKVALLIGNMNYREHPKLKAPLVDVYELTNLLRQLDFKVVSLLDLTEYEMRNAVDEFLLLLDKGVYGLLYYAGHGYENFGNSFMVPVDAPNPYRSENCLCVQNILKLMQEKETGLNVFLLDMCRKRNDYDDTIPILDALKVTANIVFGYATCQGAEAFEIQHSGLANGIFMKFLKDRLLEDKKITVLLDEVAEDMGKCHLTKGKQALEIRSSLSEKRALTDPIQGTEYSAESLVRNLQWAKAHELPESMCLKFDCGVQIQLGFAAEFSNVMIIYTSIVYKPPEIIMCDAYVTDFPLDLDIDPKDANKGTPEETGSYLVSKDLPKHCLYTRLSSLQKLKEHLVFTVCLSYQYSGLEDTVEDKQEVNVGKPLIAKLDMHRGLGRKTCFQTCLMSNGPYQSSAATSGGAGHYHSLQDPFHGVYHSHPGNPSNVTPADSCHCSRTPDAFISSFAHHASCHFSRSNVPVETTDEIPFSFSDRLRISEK

Cathepsin B [2] = biological target: T2, Cathepsin B (Homo sapiens, UniProt P07858); assay: Inhibition of recombinant human cathepsin B expressed in Escherichia coli BL21 (DE3) assessed as increase in fluorescence at 0.5 uL using zRR-AMC as substrate measured after 60 to 80 mins by fluorescence plate reader assay
[3] = biological target: T3, Mucosa-associated lymphoid tissue lymphoma translocation protein 1 (Homo sapiens, UniProt Q9UDY8); assay: Inhibition of […] wild type human N-terminal GST-tagged MALT1 catalytic domain (325 to 760 residues) expressed in Escherichia coli BL21 (DE3) using Ac-LVPipR-ACC as substrate measured after 2 hrs by microplate reader assay
T3 sequence (Q9UDY8 whole entry): T1 sequence (whole entry)

[4] = biological target: T1, Mucosa-associated lymphoid tissue lymphoma translocation protein 1 (Homo sapiens); assay: Inhibition of […] wild type human N-terminal GST-tagged MALT1 catalytic domain (325 to 760 residues) expressed in Escherichia coli BL21 (DE3) assessed as inactivation rate constant using Ac-LVPipR-ACC as substrate measured after 2 hrs by microplate reader assay
Cathepsin B [5] = biological target: T2, Cathepsin B; assay: Inhibition of recombinant human cathepsin B expressed in Escherichia coli BL21 (DE3) using zRR-AMC as substrate measured after 2 hrs by fluorescence plate reader assay
Cathepsin B [6] = biological target: T2, Cathepsin B; assay: Inhibition of recombinant human cathepsin B expressed in Escherichia coli BL21 (DE3) assessed as inactivation rate constant using zRR-AMC as substrate measured after 2 hrs by fluorescence plate reader assay
[7] = biological target: T1, Mucosa-associated lymphoid tissue lymphoma translocation protein 1 (Homo sapiens); assay: Covalent binding affinity to Streptag2-tagged MALT1 stably reconstituted in human knockout Jurkat cells assessed as PMA/ionomycin stimulated ABP labeling of MALT1 by measuring cleavage of CYLD substrate using CYLD as substrate at 3 uM pretreated for PMA/ionomycin with 30 mins followed by compound treatment and further incubated for 3 hrs by Western blot analysis; assay type: cell-based
Homo sapiens = organism: Homo sapiens; assay: Covalent binding affinity to MALT1 C453/A mutant (unknown origin) assessed as PMA/ionomycin stimulated ABP labeling of MALT1 by measuring cleavage of CYLD substrate using CYLD as substrate at 3 uM pretreated with PMA/ionomycin for 30 mins followed by compound treatment and further incubated for 3 hrs by Western blot analysis
[8] = biological target: T1, Mucosa-associated lymphoid tissue lymphoma translocation protein 1 (Homo sapiens); assay: Covalent binding affinity to MALT1 in wild type human Jurkat cell lysate assessed as PMA/ionomycin stimulated ABP labeling by protein-compound adduct formation at 3 uM pretreated with PMA/ionomycin for 30 mins followed by compound treatment after 3 hrs by laser imaging analysis; assay type: subcellular
Cathepsin B [9] = biological target: T2, Cathepsin B; assay: Covalent binding affinity to cathepsin B in wild type human Jurkat cell lysate assessed as ABP labeling by protein-compound adduct formation at 3 uM after 3 hrs by laser imaging analysis; assay type: subcellular
[10] = biological target: T1, Mucosa-associated lymphoid tissue lymphoma translocation protein 1 (Homo sapiens); assay: (§1) Competitive binding affinity to MALT1 in wild type human Jurkat cell lysate assessed as PMA/ionomycin stimulated ABP labeling by protein-compound adduct formation at 3 uM pretreated with 25 uM of MALT1 inhibitor s-mepazine for 2 hrs followed by PMA/ionomycin stimulation for 30 mins and subsequent compound addition measured after 3 hrs by Western blot analysis; assay type: subcellular
[11] = biological target: T1, Mucosa-associated lymphoid tissue lymphoma translocation protein 1 (Homo sapiens); assay: as §1, with “z-VRPR-FMK” for “s-mepazine”; assay type: subcellular
Cathepsin B [12] = biological target: T2, Cathepsin B; assay: as §1, with “to cathepsin B” for “to MALT1”, “inhibitor z-VRPR-FMK” for “inhibitor s-mepazine”; assay type: subcellular
Cathepsin B [13] = biological target: T2, Cathepsin B; assay: as §1, with “to cathepsin B” for “to MALT1”, “with 5” for “with 25”, “inhibitor CA-074ME” for “inhibitor s-mepazine”; assay type: subcellular
[14] = biological target: T1, Mucosa-associated lymphoid tissue lymphoma translocation protein 1 (Homo sapiens); assay: Inhibition of MALT1 in human HBL1 assessed as assessed as reduction in Relb substrate cleavage after 5 hrs in presence of proteasome inhibitor by Western blot analysis
[15] = biological target: T1, Mucosa-associated lymphoid tissue lymphoma translocation protein 1 (Homo sapiens); assay: Binding affinity to MALT1 in human Jurkat cells assessed as ABP labeling of protein at 3 uM pretreated with compound for 3 hrs followed by PMA/ionomycin stimulation for 30 mins by laser imaging analysis; assay type: cell-based
Cathepsin B [16] = biological target: T2, Cathepsin B; assay: Binding affinity to cathepsin B in human Jurkat cells assessed as ABP labeling of protein at 3 uM pretreated with compound for 3 hrs followed by PMA/ionomycin stimulation for 30 mins by laser imaging analysis; assay type: cell-based
[17] = biological target: T1, Mucosa-associated lymphoid tissue lymphoma translocation protein 1 (Homo sapiens); assay: Inhibition of MALT1 in human HBL1 assessed as assessed as reduction in Relb substrate cleavage at 3 to 30 uM after 5 hrs in presence of proteasome inhibitor by Western blot analysis
Cathepsin B [18] = biological target: T2, Cathepsin B; assay: Inhibition of recombinant human cathepsin B expressed in Escherichia coli BL21 (DE3) assessed as increase in fluorescence at 0.5 uL using zRR-AMC as substrate measured after 60 to 80 mins by fluorescence plate reader assay relative to Z-VRPR-FMK

| SMILES | inhibition [1] | inhibition (Cathepsin B [2]) | Ki [3] [nM] | Kinact [4] [×10⁻³ /s] | Ki (Cathepsin B [5]) [nM] | Kinact (Cathepsin B [6]) [×10⁻³ /s] | Activity [7] | Activity (Homo sapiens) | Activity [8] | Activity (Cathepsin B [9]) | Activity [10] | Activity [11] | Activity (Cathepsin B [12]) | Activity (Cathepsin B [13]) | inhibition [14] | Activity [15] | Activity (Cathepsin B [16]) | inhibition [17] | fold change (FC) (Cathepsin B [18]) |
| --- | --- | --- | --- | --- | --- | --- | --- | --- | --- | --- | --- | --- | --- | --- | --- | --- | --- | --- | --- |
| CC1=CC(C)=[N+]2C1=C(CCCc1cn(CCCCCC(=O)N[C@@H](CC(C)C)C(=O)N[C@H](C(=O)N[C@@H](CO)C(=O)N[C@@H](CCCNC(=N)N)C(=O)COC(=O)c3c(C)cccc3C)C(C)C)nn1)c1c(C)cc(C)n1[B-]2(F)F | Active | Active | 210 | 1.1 | 210 | 4.1 | Active | inactive | Active | Active | inactive | inactive | inactive | inactive | Dose-dependent effect | Active | Active | – | – |
| CC1=CC(C)=[N+]2C1=Cc1ccc(CCC(=O)N[C@@H](CC(C)C)C(=O)N[C@@H](CCCNC(=N)N)C(=O)N[C@@H](CO)C(=O)N[C@@H](CCCNC(=N)N)C(=O)COC(=O)c3c(C)cccc3C)n1[B-]2(F)F | Active | Active | 340 | 2 | 630 | 9.6 | Active | inactive | Active | Active | – | – | – | – | – | Active | Active | inactive | – |
| CC1=CC(C)=[N+]2C1=C(CCCc1cn(CCCCCC(=O)N[C@@H](CC(C)C)C(=O)N[C@H](C(=O)N3CCCC[C@H]3C(=O)N[C@@H](CCCNC(=N)N)C(=O)COC(=O)c3c(C)cccc3C)C(C)C)nn1)c1c(C)cc(C)n1[B-]2(F)F | Active | Active | 170 | 1.7 | > 10000 | – | Active | inactive | Active | inactive | – | – | – | – | Dose-dependent effect | inactive | inactive | – | 50 |
| CC(C)[C@H](NC(=O)OCc1ccccc1)C(=O)N[C@@H](CCCNC(=N)N)C(=O)N1CCC[C@H]1C(=O)N[C@@H](CCCNC(=N)N)C(=O)CF | Active | Active | – | – | – | – | – | – | – | – | – | – | – | – | – | – | – | – | – |
